One series concerns HeLa. Nature of the series: Inhibition of [3H]-adenosine uptake in human HeLa cells preincubated for 30 mins followed by [3H]-adenosine addition measured after 60 mins by PMT-based radiometric detection method. The conditions noted are these: 1 h. Type of series: cell-based.
The target of series [1] is T1, Tyrosine-protein kinase BTK (Homo sapiens, UniProt Q06187). Description: Inhibition of BTK in human PBMC.
Series [2] deals with T1, Tyrosine-protein kinase BTK. Description: Inhibition of 6-His-tagged recombinant full length BTK (unknown origin) expressed in baculovirus-transfected Sf9 cells using Biotin-EQEDEPEGDYFEWLE-NH2 as substrate preincubated for 60 mins followed by substrate addition measured after 120 mins by LANCE TR-FRET assay. In general terms: TR-FRET usually uses a lanthanide donor and a delayed reading to cut background.

Series [3] can be described thus: Apparent permeability of the compound. The format is physicochemical. The conditions noted are these: not told.
A short description of series [4]: Clearance in iv dosed rat. The format is ADME, organism-based. To be noted: in vivo.
The target of series [5] is Voltage-dependent L-type calcium channel subunit alpha-1C (Homo sapiens, UniProt Q13936). Nature of the series: Inhibition of Cav1.2 (unknown origin).
Voltage-dependent L-type calcium channel subunit alpha-1C, sequence (Q13936 whole entry): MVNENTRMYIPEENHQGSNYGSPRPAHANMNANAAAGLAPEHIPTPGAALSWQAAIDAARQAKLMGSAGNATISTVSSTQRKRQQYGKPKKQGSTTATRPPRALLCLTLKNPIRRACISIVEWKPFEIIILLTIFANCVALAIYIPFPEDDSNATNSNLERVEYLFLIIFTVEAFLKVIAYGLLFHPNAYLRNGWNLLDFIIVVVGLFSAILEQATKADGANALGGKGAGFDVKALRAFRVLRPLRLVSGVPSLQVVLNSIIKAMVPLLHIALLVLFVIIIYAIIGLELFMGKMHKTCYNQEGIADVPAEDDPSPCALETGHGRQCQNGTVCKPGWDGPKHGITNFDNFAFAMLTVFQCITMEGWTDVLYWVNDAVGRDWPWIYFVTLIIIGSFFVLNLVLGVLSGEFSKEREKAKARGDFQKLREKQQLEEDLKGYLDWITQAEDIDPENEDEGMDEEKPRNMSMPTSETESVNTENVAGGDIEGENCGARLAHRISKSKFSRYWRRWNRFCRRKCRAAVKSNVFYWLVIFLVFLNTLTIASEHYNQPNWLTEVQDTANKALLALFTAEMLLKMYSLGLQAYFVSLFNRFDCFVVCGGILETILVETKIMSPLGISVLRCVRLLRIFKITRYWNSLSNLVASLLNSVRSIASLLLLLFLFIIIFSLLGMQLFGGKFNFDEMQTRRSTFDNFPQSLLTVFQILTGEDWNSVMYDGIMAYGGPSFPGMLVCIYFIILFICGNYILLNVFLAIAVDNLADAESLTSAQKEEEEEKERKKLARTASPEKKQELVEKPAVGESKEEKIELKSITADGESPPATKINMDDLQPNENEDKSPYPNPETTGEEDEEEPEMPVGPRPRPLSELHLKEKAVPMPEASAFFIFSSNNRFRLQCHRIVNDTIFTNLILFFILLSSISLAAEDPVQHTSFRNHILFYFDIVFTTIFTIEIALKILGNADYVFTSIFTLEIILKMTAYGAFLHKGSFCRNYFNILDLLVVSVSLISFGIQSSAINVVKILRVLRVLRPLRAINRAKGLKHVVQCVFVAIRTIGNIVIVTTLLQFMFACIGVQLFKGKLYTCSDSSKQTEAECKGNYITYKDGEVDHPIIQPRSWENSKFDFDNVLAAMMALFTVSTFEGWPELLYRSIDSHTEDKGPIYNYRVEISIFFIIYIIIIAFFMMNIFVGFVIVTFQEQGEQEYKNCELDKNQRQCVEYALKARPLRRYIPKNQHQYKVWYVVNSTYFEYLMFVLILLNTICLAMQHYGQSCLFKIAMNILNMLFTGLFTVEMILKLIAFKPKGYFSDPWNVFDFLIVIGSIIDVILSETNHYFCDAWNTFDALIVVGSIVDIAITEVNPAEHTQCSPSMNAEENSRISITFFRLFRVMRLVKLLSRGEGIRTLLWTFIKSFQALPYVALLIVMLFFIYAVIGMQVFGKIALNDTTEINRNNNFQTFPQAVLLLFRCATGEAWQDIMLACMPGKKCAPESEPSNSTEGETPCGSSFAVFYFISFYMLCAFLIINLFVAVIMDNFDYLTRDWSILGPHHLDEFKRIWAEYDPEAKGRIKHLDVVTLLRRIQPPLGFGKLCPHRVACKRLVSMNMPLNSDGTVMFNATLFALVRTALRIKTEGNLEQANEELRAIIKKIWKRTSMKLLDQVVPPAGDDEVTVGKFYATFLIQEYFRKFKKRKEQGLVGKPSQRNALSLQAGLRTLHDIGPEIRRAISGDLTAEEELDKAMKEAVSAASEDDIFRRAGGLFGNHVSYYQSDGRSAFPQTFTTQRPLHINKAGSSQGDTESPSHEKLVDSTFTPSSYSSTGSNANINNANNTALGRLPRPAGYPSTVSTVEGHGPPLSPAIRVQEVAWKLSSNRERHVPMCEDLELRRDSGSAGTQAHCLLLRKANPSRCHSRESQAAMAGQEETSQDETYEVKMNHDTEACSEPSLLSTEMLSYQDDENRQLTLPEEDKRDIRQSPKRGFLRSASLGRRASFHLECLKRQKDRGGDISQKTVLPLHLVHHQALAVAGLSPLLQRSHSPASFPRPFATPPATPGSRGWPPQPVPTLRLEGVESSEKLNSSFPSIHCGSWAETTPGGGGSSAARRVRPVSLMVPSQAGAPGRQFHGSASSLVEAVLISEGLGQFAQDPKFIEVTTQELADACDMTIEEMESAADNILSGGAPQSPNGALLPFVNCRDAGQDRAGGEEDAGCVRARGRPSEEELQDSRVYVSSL
The target in series [6] is Sodium channel protein type 5 subunit alpha (Homo sapiens, UniProt Q14524). Nature of the series: Inhibition of Nav1.5 (unknown origin).
Sodium channel protein type 5 subunit alpha, sequence (Q14524 whole entry): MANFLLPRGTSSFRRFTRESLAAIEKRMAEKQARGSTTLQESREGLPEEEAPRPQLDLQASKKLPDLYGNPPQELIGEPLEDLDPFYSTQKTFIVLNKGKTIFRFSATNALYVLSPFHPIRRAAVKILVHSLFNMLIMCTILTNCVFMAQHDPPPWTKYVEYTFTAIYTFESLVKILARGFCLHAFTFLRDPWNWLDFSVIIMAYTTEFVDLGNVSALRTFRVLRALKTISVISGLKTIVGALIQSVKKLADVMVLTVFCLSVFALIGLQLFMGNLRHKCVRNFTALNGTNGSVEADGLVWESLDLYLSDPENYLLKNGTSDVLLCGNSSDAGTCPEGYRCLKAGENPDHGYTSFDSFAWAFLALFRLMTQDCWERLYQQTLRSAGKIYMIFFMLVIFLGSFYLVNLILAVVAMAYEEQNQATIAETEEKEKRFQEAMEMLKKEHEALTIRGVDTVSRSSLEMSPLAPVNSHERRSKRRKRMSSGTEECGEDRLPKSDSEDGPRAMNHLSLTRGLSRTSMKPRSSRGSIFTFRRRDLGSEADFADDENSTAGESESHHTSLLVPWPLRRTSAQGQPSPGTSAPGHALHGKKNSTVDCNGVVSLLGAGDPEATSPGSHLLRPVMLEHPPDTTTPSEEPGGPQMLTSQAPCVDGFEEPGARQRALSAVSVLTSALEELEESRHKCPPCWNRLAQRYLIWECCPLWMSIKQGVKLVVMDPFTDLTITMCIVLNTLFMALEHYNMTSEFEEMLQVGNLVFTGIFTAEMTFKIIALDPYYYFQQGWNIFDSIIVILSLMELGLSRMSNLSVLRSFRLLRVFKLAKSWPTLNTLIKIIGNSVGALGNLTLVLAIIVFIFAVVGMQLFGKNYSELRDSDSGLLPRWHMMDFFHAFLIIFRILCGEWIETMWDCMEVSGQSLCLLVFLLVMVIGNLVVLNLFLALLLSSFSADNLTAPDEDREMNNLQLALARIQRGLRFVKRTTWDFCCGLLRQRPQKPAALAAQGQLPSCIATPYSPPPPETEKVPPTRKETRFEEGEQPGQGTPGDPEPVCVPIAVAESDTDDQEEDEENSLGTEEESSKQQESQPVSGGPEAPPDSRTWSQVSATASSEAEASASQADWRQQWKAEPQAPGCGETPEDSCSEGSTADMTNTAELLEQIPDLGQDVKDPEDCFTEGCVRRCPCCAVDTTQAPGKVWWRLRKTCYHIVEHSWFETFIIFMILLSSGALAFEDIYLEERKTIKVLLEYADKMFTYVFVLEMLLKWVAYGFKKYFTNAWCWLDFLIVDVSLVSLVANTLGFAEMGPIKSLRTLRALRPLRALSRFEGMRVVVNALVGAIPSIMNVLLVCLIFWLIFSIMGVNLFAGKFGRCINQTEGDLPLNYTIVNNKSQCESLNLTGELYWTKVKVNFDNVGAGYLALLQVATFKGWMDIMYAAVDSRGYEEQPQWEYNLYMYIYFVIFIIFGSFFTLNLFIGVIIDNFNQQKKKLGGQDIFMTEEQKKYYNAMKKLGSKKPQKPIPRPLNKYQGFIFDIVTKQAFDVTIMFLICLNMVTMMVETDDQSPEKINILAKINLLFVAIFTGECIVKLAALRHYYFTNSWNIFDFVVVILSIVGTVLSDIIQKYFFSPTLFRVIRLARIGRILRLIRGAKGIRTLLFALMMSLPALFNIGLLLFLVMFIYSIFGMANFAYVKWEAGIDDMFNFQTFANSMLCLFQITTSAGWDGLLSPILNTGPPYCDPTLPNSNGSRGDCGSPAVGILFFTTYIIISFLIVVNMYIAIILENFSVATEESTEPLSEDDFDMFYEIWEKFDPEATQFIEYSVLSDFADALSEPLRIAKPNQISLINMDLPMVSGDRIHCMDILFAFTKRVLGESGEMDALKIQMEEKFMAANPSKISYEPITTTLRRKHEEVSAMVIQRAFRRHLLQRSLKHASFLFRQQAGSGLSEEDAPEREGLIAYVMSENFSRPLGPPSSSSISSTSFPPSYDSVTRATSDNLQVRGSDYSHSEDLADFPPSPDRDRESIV
The nature of series [7]: Half life in iv dosed rat. The format is ADME, organism-based. To be noted: in vivo.
The nature of series [8]: Oral bioavailability in rat. The conditions noted are these: in vivo. Type of series: ADME, organism-based.
Series [9] in a line: Unbound fraction in rat. The format is ADME.
Series [10] in a line: Clearance in iv dosed dog. The format is ADME, organism-based, Canis lupus familiaris. The conditions noted are these: in vivo.
Series [11] in a line: Oral bioavailability in dog. The conditions noted are these: in vivo. The format is ADME, organism-based, Canis lupus familiaris.
The target of series [12] is Voltage-gated inwardly rectifying potassium channel KCNH2 (Homo sapiens, UniProt Q12809). Description: Inhibition of human ERG.
Series [13] in a line: Half life in iv dosed dog. The format is ADME, organism-based, Canis lupus familiaris. The conditions noted are these: in vivo.
Series [14] can be described thus: Plasma clearance in rat. The format is ADME.
A short description of series [15]: Half life in rat. Type of series: ADME. The conditions noted are these: in vivo.

This is an account of results in ChEMBL document CHEMBL3997842, “Discovery of novel BTK inhibitors with carboxylic acids” (Bioorg Med Chem Lett, 2017).

A value given as a limit tells only on which side of the number the result lay.

T1 sequence (Q06187 whole entry): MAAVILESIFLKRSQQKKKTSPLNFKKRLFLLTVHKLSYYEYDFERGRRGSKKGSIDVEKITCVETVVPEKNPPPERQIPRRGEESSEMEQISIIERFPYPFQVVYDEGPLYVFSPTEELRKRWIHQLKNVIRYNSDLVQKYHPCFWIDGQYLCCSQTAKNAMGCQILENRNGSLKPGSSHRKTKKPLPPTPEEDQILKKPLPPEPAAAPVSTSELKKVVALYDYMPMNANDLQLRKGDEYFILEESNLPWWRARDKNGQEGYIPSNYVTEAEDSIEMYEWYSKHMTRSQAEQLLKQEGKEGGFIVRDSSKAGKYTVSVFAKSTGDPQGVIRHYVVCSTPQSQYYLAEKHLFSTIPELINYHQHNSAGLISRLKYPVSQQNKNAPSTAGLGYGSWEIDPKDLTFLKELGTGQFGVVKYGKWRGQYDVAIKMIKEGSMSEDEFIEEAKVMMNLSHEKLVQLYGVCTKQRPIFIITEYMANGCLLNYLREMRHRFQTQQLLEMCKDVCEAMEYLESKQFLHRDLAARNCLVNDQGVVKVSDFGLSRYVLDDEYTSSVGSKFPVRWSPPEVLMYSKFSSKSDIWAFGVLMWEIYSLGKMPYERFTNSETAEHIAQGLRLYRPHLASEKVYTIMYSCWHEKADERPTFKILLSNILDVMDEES

`Nc1nccn2c(C34CCC(C(=O)O)(CC3)CC4)nc(-c3ccc(C(=O)Nc4cc(C(F)(F)F)ccn4)cc3)c12` registered an Inhibitory concentration in the series on HeLa of 308 nM. The IC50 was 5 nM in series [1] and 0.2 nM in [2].
Consider `Nc1nccn2c([C@@H]3CCC[C@H](c4n[nH]c(=O)o4)C3)nc(-c3ccc(C(=O)Nc4cc(C(F)(F)F)ccn4)cc3)c12`, for which, in the series with HeLa, the Inhibitory concentration came out at 44 nM.
Turning to `Nc1nccn2c([C@@H]3CCC[C@H](c4nn[nH]n4)C3)nc(-c3ccc(C(=O)Nc4cc(C(F)(F)F)ccn4)cc3)c12`, in series [3], the apparent permeability (Papp) turned out to be 3 ×10⁻⁶ cm/s. The Inhibitory concentration with HeLa is recorded as greater than 10000 nM.
For `Nc1nccn2c1c(-c1ccc(C(=O)Nc3cc(C(F)(F)F)ccn3)cc1)nc2[C@]12CC[C@](C(=O)O)(CC1)C2`, the Inhibitory concentration with HeLa is 459 nM. The values for the IC50 in series [1] and in series [2] were 9 nM and 0.2 nM, respectively.
Turning to `C[C@]1(C(=O)O)CC[C@@](C)(c2nc(-c3ccc(C(=O)Nc4cc(C(F)(F)F)ccn4)cc3)c3c(N)nccn23)C1`, the clearance in series [4] turned out to be 2 mL/min/kg. The IC50 in [5] was 19000 nM; in series [6] it was greater than 30000 nM; in series [1], 8 nM; in [2], 0.2 nM. Further, in series [7], the half-life is 2.4 h. The compound also returned a bioavailability in [8] of 39%. The same compound registered a fraction unbound in [9] of 0.001. The compound further came in with an Inhibitory concentration in the series with HeLa of 1699 nM.
In the case of `NC(=O)[C@H]1CCC[C@@H](c2nc(-c3ccc(C(=O)Nc4cc(C(F)(F)F)ccn4)cc3)c3c(N)nccn23)C1`, the Inhibitory concentration with HeLa came to 45 nM.
As for `Nc1nccn2c1c(-c1ccc(C(=O)Nc3cc(C(F)(F)F)ccn3)cc1)nc2[C@H]1CC[C@@H](C(=O)O)CC1`, in the series with HeLa, the Inhibitory concentration is given as greater than 10000 nM.
Take `C[C@]1(C(=O)O)CCC[C@@](C)(c2nc(-c3ccc(C(=O)Nc4cc(C(F)(F)F)ccn4)cc3)c3c(N)nccn23)C1`: the clearance in series [4] came to 9 mL/min/kg. Further, the IC50 is 13000 nM in [5], greater than 30000 nM in [6], 18 nM in [1] and 0.1 nM in [2]. The same compound had a half-life in [7] of 3 h. The bioavailability in series [8] amounted to 22%. This compound displayed a free fraction (fraction unbound) in series [9] of 0.002. In addition, the Inhibitory concentration in the series with HeLa is 6073 nM.
Compound `Nc1nccn2c(C34C5C6C3C3C4C5C63C(=O)O)nc(-c3ccc(C(=O)Nc4cc(C(F)(F)F)ccn4)cc3F)c12` (stereo unspecified) registered an Inhibitory concentration in the series with HeLa of 812 nM.
As for `C[C@]1(C(=O)O)CC[C@@](C)(c2nc(-c3ccc(C(=O)Nc4cc(C(F)(F)F)ccn4)cc3)c3c(N)nccn32)CC1`, the clearance in series [4] and in series [10] was 13 mL/min/kg each time. The IC50 was 15000 nM in [5]; greater than 30000 nM in series [6]; greater than 60000 nM in series [12]; 17 nM in series [1]; 1 nM in [2]. Moreover, the half-life in [7] was 5 h; in [13] it was 5.8 h. The bioavailability amounted to 75% in [8] and 77% in series [11]. The fraction unbound in [9] came out at 0.001. The same compound returned an Inhibitory concentration in the series with HeLa of 1452 nM.
Consider `Nc1nccn2c1c(-c1ccc(C(=O)Nc3cc(C(F)(F)F)ccn3)cc1)nc2[C@]12CCC[C@](C(=O)O)(CC1)CC2`, for which the Inhibitory concentration in the series on HeLa came out at 274 nM. Moreover, the figures for the IC50 in [1] and in [2] were 6 nM and 0.3 nM, respectively.
In the case of `Cn1nnnc1[C@H]1CCC[C@@H](c2nc(-c3ccc(C(=O)Nc4cc(C(F)(F)F)ccn4)cc3)c3c(N)nccn23)C1`, the Papp in [3] came to 26 ×10⁻⁶ cm/s. Further, the Inhibitory concentration in the series on HeLa came to 155 nM.
On to `Cn1nnc([C@H]2CCC[C@@H](c3nc(-c4ccc(C(=O)Nc5cc(C(F)(F)F)ccn5)cc4)c4c(N)nccn34)C2)n1`, for which the apparent permeability (Papp) in series [3] worked out at 28 ×10⁻⁶ cm/s. In the series with HeLa, this compound yielded an Inhibitory concentration of 150 nM.
As for `C[C@]1(C(=O)O)CC[C@@H](c2nc(-c3ccc(C(=O)Nc4cc(C(F)(F)F)ccn4)cc3)c3c(N)nccn23)C1`, in the series on HeLa, the Inhibitory concentration is 5396 nM.
The compound `Nc1nccn2c([C@@H]3CCC[C@H](C(=O)O)C3)nc(-c3ccc(C(=O)Nc4cc(C(F)(F)F)ccn4)cc3)c12` came in with a clearance in series [14] of 7.9 mL/min/kg. Besides, the apparent permeability coefficient (Papp) in series [3] was determined as 7 ×10⁻⁶ cm/s. Besides, the IC50 in series [5] is greater than 30000 nM; in series [6] it was greater than 30000 nM; in [12], greater than 60000 nM. The compound further gave a bioavailability in series [8] of 2%. The same compound gave a half-life in series [15] of 1.2 h.
In the series with HeLa, `Nc1nccn2c(C34CC(C(=O)O)(C3)C4)nc(-c3ccc(C(=O)Nc4cc(C(F)(F)F)ccn4)cc3)c12` yielded an Inhibitory concentration of 6476 nM. For the same compound, the IC50 in [1] amounted to 67 nM; in series [2] it was 0.4 nM.
Take `Nc1nccn2c([C@@H]3CCC[C@H](c4noc(=O)[nH]4)C3)nc(-c3ccc(C(=O)Nc4cc(C(F)(F)F)ccn4)cc3)c12`: in the series on HeLa, the Inhibitory concentration worked out at 9086 nM.
On the same count and under the same terms, to `CC1(C(=O)O)CCC(c2nc(-c3ccc(C(=O)Nc4cc(C(F)(F)F)ccn4)cc3)c3c(N)nccn23)CC1` (stereo unspecified) belongs 2492 nM.
Regarding `CC(C)[C@@]1(C(=O)O)CC[C@@](C)(c2nc(-c3ccc(C(=O)Nc4cc(C(F)(F)F)ccn4)cc3)c3c(N)nccn23)C1`, the clearance in [4] was 2.8 mL/min/kg. The IC50 in series [5] is 8000 nM; in series [6], greater than 30000 nM; in [12] it was greater than 60000 nM; in [1], 20 nM; in series [2] it was 0.4 nM. The same compound had a half-life in series [7] of 2 h. In [8], this compound came in with a bioavailability of 44%. Further, in series [9], the fraction unbound was found to be 0.003. The same compound displayed an Inhibitory concentration in the series on HeLa of 4010 nM.
In series [14], `CCOc1cc(C(=O)Nc2cc(C(F)(F)F)ccn2)ccc1-c1nc(C23CCC(C(=O)O)(CC2)CC3)n2ccnc(N)c12` yielded a clearance of 139 mL/min/kg. Besides, the IC50 in series [5] was 15000 nM; in series [6] it was greater than 30000 nM. In [8], this compound displayed a bioavailability of 30%. This compound also gave a half-life in series [15] of 0.8 h.
In the series on HeLa, `Nc1nccn2c([C@H]3C[C@@H]4[C@H](C3)[C@H]4C(=O)O)nc(-c3ccc(C(=O)Nc4cc(C(F)(F)F)ccn4)cc3)c12` showed an Inhibitory concentration of 1927 nM.
Still for that read-out and setting: to `Nc1nccn2c1c(-c1ccc(C(=O)Nc3cc(C(F)(F)F)ccn3)cc1)nc2[C@H]1CC[C@H](C(=O)O)CC1` belongs greater than 10000 nM.
Take `Nc1nccn2c([C@@H]3CCC[C@H](c4nnc[nH]4)C3)nc(-c3ccc(C(=O)Nc4cc(C(F)(F)F)ccn4)cc3)c12`: in [3], the Papp is 20 ×10⁻⁶ cm/s. The compound further returned an Inhibitory concentration in the series with HeLa of 168 nM.
In the series with HeLa, `C[C@H]1CC[C@@H](c2nc(-c3ccc(C(=O)Nc4cc(C(F)(F)F)ccn4)cc3F)c3c(N)nccn23)CN1C(=O)C1CC1` returned an Inhibitory concentration of 110 nM.
Turning to `CS(=O)(=O)NC(=O)[C@H]1CCC[C@@H](c2nc(-c3ccc(C(=O)Nc4cc(C(F)(F)F)ccn4)cc3)c3c(N)nccn23)C1`, in series [3], the Papp was found to be 2 ×10⁻⁶ cm/s. In the series with HeLa, this compound returned an Inhibitory concentration of 5600 nM.
In turn, `C[C@]1(C(=O)O)CCC[C@@H](c2nc(-c3ccc(C(=O)Nc4cc(C(F)(F)F)ccn4)cc3)c3c(N)nccn23)C1` (racemic) gave a fraction unbound in series [9] of 0.002.

What is called IC50 is the point on the concentration scale where inhibition reaches its midpoint. Usually Papp stands for the rate of passage across a membrane or cell layer, normalised by area and donor concentration. One may read the clearance as the volume of plasma or blood freed of the substance per unit of time. A word on the half-life: it is how long it takes for the measured level to halve. One may read the bioavailability as dose-corrected exposure relative to a reference, in per cent. Read a high bioavailability as good availability. One may read the fraction unbound as free concentration divided by total concentration.
